Assay results from patent US20100144853A1, “NOVEL COMBINED ADMINISTRATION” (priority 2008, published 2010).

Legend:
Type in all cases: in vitro ADME
Lipase from Hog Pancreas [1] = assay: Stability of COMPOUND A with Lipase, with and without COMPOUND B (Example 1); conditions: 0.55 mg/mL (11 U/mL) Lipase
Experimental: (a) FeSSIF (Fed State Simulated Intestinal Fluid) and phosphate buffered saline solution:
(b) Stock A=drug solution (0.5 mg/mL):
5 mg of thioisobutyric acid S-(2-{[1-(2-ethyl-butyl)-cyclohexanecarbonyl]-amino}-phenyl)ester (COMPOUND A) were dissolved in 50 μL ethanol and 950 μL mixed micelles Soybean lecithin/Sodium glycocholate (158/97 mg/mL) in water were added. One part of the mixture was diluted with 9 parts of phosphate buffered saline solution at pH 6.5.
(c) Stock B=esterase inhibitor solution (1.0 mg/mL)
5 mg 1-(3-hexyl-4-oxo-oxetan-2-yl)tridecan-2-yl 2-formyl-amino-4-methyl-pentanoate (COMPOUND B) were dissolved in 250 μL ethanol. 4.75 mL mixed micelles soybean lecithin/sodium glycocholate (30/80.6 mg/mL) were added to give a solution of 1 mg/mL COMPOUND B.
(d) Stock C=Lipase in phosphate buffered saline solution (PBS) pH 6.5 (example given at 24 mg/mL, with a final enzyme activity of about 450 U/mL)
240 mg Lipase (Lipase from Hog Pancreas, 20.6 U/mg Lipase, CAS No. 9001-62-1, Fluka, Art. No. 62300) were weighed into a vial and dissolved by stirring in 10 mL phosphate buffered saline solution pH 6.5. Any undissolved material was removed by centrifugation during 5 min at 5000 rpm. The supernatant was used for the experiments and diluted with PBS to obtain the Lipase at the final concentration of 0.55 mg/mL.
[…] To this, 200 μL of drug solution (stock A) were injected at time zero. The mixture was incubated at 37° C., while mixing gently with a rotating shaker at about 2 rpm. At regular intervals 200 μL samples were taken and diluted immediately with 600 μL of isopropanol. The combined solution/suspension was centrifuged during 5 min at 3000 rpm and the concentration of COMPOUND A as well as its potential degradation products were determined in the supernatant by HPLC analysis.
To obtain the value at time zero, 600 μL of isopropanol were added to 180 μL of a 0.55 mg/mL Lipase in a phosphate buffered saline solution to inhibit the enzymes followed by the addition of 20 μL of drug solution (stock A).

Lipase from Hog Pancreas [2] = assay: Stability of COMPOUND A with Lipase, Procedure B' (as B, lower COMPOUND B concentrations); conditions: after 10 min incubation, 0.55 mg/mL (11 U/mL) Lipase
Experimental: 100 μL of drug solution (stock A) were mixed with 0, 12, 25 or 50 μL esterase inhibitor solution (stock B) and 100, 88, 75 or 50 μL of FeSSIF concentrate (Lecithin37.5 mM and Sodium taurocholate 150 mM) were added to make up 200 μL of a solution with COMPOUND B concentrations of 0, 12, 25 or 50 μg/mL. At time zero, 800 μL of Lipase in phosphate buffered saline solution (from stock C to obtain final enzyme concentrations of 0.55 mg/mL) were added. The reaction mixture was incubated at 37° C. and stopped after 10 minutes by diluting one part of the reaction mixture with 3 parts Isopropanol.
Procedure B′ (Premix of COMPOUND B and COMPOUND A, Followed by Addition of Lipase):
The tests were repeated as described under procedure B but with final COMPOUND B concentrations of 0, 3, 6, 12 μg/ml.

[3] = Stability of COMPOUND A in human intestinal fluids, Procedure D (in solution), fasted; conditions: fasted intestinal fluid
Experimental: (§1) Procedure D (COMPOUND A and COMPOUND B in Solution):
Fasted Intestinal Fluids: the fluids from 4 different subjects were collected with a naso-jejunal tube after fasting overnight and pooled.
(§2) 5 mg of thioisobutyric acid S-(2-{[1-(2-ethyl-butyl)-cyclohexanecarbonyl]-amino}-phenyl)ester (COMPOUND A) were dissolved in 50 μL ethanol and 950 μL mixed micelles solution containing Soybean lecithin/Sodium glycocholate (158/97 mg/mL) in water were added.
(§3) 3 mg of 1-(3-hexyl-4-oxo-oxetan-2-yl)tridecan-2-yl 2-formyl-amino-4-methyl-pentanoate (COMPOUND B) were dissolved in 1 mL of ethanol. 100 μL of this solution was diluted with 900 μL of FeSSIF concentrate (10×).
(§4) 100 μL of drug solution (stock D) were mixed with 100 μL of esterase inhibitor solution (stock E) and 800 μL of pro-FaSSIF were added.
(§5) 100 μL of premix (stock F) were mixed with 200 μL of drug solution (stock A).
(§6) 200 μL of premix (stock F) were mixed with 100 μL of drug solution (stock A). 315 μL of intestinal fluids (fasted and stimulated) were pre-heated at 37° C. for about 5 min. At time zero, 35 μL of premix solutions were added, i.e. either stock A, stock G, stock H or stock F, to obtain 50 μg/mL of COMPOUND A and final concentrations of COMPOUND B of 0, 1, 2 or 3 μg/mL. The samples were incubated at 37° C. while gently stirring. The reaction was stopped after 2 min or after 10 min by dilution of 1 part of the reaction mixture with 3 parts of isopropanol and the resulting mixture was centrifuged for 5 min at 5′000 rpm. The supernatant was analyzed by HPLC.

[4] = Stability of COMPOUND A in human intestinal fluids, Procedure D (in solution), stimulated; conditions: stimulated intestinal fluid
Experimental: as §1
Stimulated Intestinal Fluids: the fluids from 3 different subjects were collected after fasting overnight with a nasojejunal tube and pooled. For the stimulation, twenty minutes before the beginning of the collection, volunteers were provided with chewing-gums and were asked to chew over a 15 minutes period, maintaining the taste by replacing the sticks of gum approximately every 2 minutes.
as §2, §3, §4, §5, §6

[5] = COMPOUND B 0 μg/mL, 2 min, theoretical 50 μg/mL

## CCC(CC)CC1(C(=O)Nc2ccccc2SC(=O)C(C)C)CCCCC1 [COMPOUND A, thioisobutyric acid S-(2-{[1-(2-ethyl-butyl)-cyclohexanecarbonyl]-amino}-phenyl)ester]
Lipase from Hog Pancreas [1]; +100 μg/mL COMPOUND B, 5 min
  Concentration of COMPOUND A: 48.2 µg/mL
Lipase from Hog Pancreas [1]; +100 μg/mL COMPOUND B, 10 min
  Concentration of COMPOUND A: 48.2 µg/mL
Lipase from Hog Pancreas [1]; +100 μg/mL COMPOUND B, 15 min
  Concentration of COMPOUND A: 48.2 µg/mL
Lipase from Hog Pancreas [1]; +100 μg/mL COMPOUND B, 20 min
  Concentration of COMPOUND A: 48.0 µg/mL
Lipase from Hog Pancreas [1]; +100 μg/mL COMPOUND B, 30 min
  Concentration of COMPOUND A: 48.3 µg/mL
Lipase from Hog Pancreas [1]; +100 μg/mL COMPOUND B, 60 min
  Concentration of COMPOUND A: 40.1 µg/mL
Lipase from Hog Pancreas [1]; time 0 min (column +100 μg/mL COMPOUND B), theoretical 50 μg/mL
  Concentration of COMPOUND A: 46.9 µg/mL
Lipase from Hog Pancreas [1]; w/o COMPOUND B, 5 min
  Concentration of COMPOUND A: 27.2 µg/mL
Lipase from Hog Pancreas [1]; w/o COMPOUND B, 10 min
  Concentration of COMPOUND A: 14.7 µg/mL
Lipase from Hog Pancreas [1]; w/o COMPOUND B, 15 min
  Concentration of COMPOUND A: 7.3 µg/mL
Lipase from Hog Pancreas [1]; w/o COMPOUND B, 20 min
  Concentration of COMPOUND A: 4.1 µg/mL
Lipase from Hog Pancreas [1]; w/o COMPOUND B, 30 min
  Concentration of COMPOUND A: <0.1 µg/mL
Lipase from Hog Pancreas [1]; w/o COMPOUND B, 60 min
  Concentration of COMPOUND A: <0.1 µg/mL
Lipase from Hog Pancreas [2]; COMPOUND B 0 μg/ml
  Concentration of COMPOUND A: 14.2 µg/mL
Lipase from Hog Pancreas [2]; COMPOUND B 3 μg/ml
  Concentration of COMPOUND A: 45.9 µg/mL
Lipase from Hog Pancreas [2]; COMPOUND B 6 μg/ml
  Concentration of COMPOUND A: 46.5 µg/mL
Lipase from Hog Pancreas [2]; COMPOUND B 12 μg/ml
  Concentration of COMPOUND A: 45.7 µg/mL
[3]; [5]
  Concentration of COMPOUND A: 0.48 µg/mL
[3]; COMPOUND B 0 μg/mL, 10 min
  Concentration of COMPOUND A: 0.48 µg/mL
[3]; COMPOUND B 1 μg/mL, 2 min
  Concentration of COMPOUND A: 18.00 µg/mL
[3]; COMPOUND B 1 μg/mL, 10 min
  Concentration of COMPOUND A: 1.58 µg/mL
[3]; COMPOUND B 2 μg/mL, 2 min
  Concentration of COMPOUND A: 36.91 µg/mL
[3]; COMPOUND B 2 μg/mL, 10 min
  Concentration of COMPOUND A: 28.59 µg/mL
[3]; COMPOUND B 3 μg/mL, 2 min
  Concentration of COMPOUND A: 43.72 µg/mL
[3]; COMPOUND B 3 μg/mL, 10 min
  Concentration of COMPOUND A: 37.24 µg/mL
[4]; [5]
  Concentration of COMPOUND A: 0.48 µg/mL
[4]; COMPOUND B 0 μg/mL, 10 min
  Concentration of COMPOUND A: 0.48 µg/mL
[4]; COMPOUND B 1 μg/mL, 2 min
  Concentration of COMPOUND A: 26.06 µg/mL
[4]; COMPOUND B 1 μg/mL, 10 min
  Concentration of COMPOUND A: 2.76 µg/mL
[4]; COMPOUND B 2 μg/mL, 2 min
  Concentration of COMPOUND A: 38.92 µg/mL
[4]; COMPOUND B 2 μg/mL, 10 min
  Concentration of COMPOUND A: 24.93 µg/mL
[4]; COMPOUND B 3 μg/mL, 2 min
  Concentration of COMPOUND A: 46.91 µg/mL
[4]; COMPOUND B 3 μg/mL, 10 min
  Concentration of COMPOUND A: 40.48 µg/mL
